Test results taken from US6924297B2, “Naphathalene derivatives which bind to the EP4 receptor” (SmithKline Beecham Corporation, priority 2000, dated 2005).

Target: T1, human EP4 receptor (Homo sapiens, UniProt P35408)
T1 construct: expressed in transfected cells; host or cells: Chinese Hamster Ovary (CHO) cells infected with recombinant Semliki Forest Virus (SFV-1) particles; membranes prepared from these cells
Experiment: Human EP4 Scintillation Proximity Assay (radioligand binding)
Conditions: membranes of CHO cells expressing human EP4 receptor; [3H]-prostaglandin E2 radioligand; pKi from IC50 by Cheng-Prusoff; read-out: pKI at EP4 receptors (converted)
Description: Quantification of radioligand binding by scintillation proximity assay (SPA) is a long-established principle. Briefly, the affinity of compounds for a receptor is assessed by the specific competition between known quantities of radiolabelled ligand and compound for that receptor. Increasing concentrations of compound reduce the amount of radiolabel that binds to the receptor. This gives rise to a diminishing scintillation signal from SPA beads coated with membranes that bear the receptor. The signal may be detected with a suitable scintillation counter and the data generated may be analysed with suitable curve-fitting software.
The human EP4 SPA assay (hereafter referred to as ‘the assay’) utilises membranes prepared from Chinese Hamster Ovary (CHO cells) infected with Semliki Forest Virus (SFV). Genetically engineered SFV-1 viral particles containing the genetic sequence of the human EP4 receptor were used to infect CHO cells resulting in expression of the receptor protein in cellular membranes. Cells washed free of media are homogenised in a pH-buffered medium containing peptidase inhibitors. A suitable buffer is of the following composition: 50 mM HEPES, 1 mM EDTA, 25 μg/ml bacitracin, 100 μM leupeptin, 1 mM PMSF, 2 μM Pepstatin A, pH adjusted to 7.4 with KOH. Following removal of cell debris by a low-speed centrifugation, a pellet of membranes is prepared by a high-speed (48000 g) centrifugation of the resulting supernatant. Membrane suspensions such as that described may be stored at −80° C. until used.
For assay, membranes expressing human EP4 receptors are diluted in a pH-buffered medium and mixed with SPA beads coated with a suitable substance to facilitate the adhesion of membranes to the beads. The concentrations of membrane protein and SPA beads chosen should result in SPA binding signal of at least 300 corrected counts per minute (CCPM) when tritiated radioligand at a concentration close to its Kd (affinity value) is combined with the mixture. Non-specific binding (nsb) may be determined by competition between the radiolabelled ligand and a saturating concentration of unlabelled ligand. In order to quantify the affinity of EP4 receptor ligands, compounds are diluted in a stepwise manner across the wells of a 96-well plate. Radioligand, compound, and unlabelled ligand are then added to a 96-well plate suitable for the measurement of SPA binding signals prior to the addition of bead/membrane mixture to initiate the binding reaction. Equilibrium may be achieved by incubation at room temperature for 120 minutes prior to scintillation counting. The data so generated may be analysed by means of a computerised curve-fitting routine in order to quantify the concentration of compound that displaces 50% of the specific radioligand binding (IC50). The affinity (pKi) of the compound may be calculated from the IC50 by application of the Cheng-Prusoff correction. Suitable reagents and protocols are: reaction buffer containing 50 mM HEPES, 10 mM MgCl2, pH adjusted to 7.4 with KOH; SPA beads coated with wheatgerm agglutinin; 1.25 nM [^3H]-prostaglandin E2 as radioligand; 10 μM prostaglandin E2 as unlabelled ligand; a three-fold dilution series of compound starting at 10 μM and ending at 0.3 nM is adequate.

T1 sequence (P35408 whole entry): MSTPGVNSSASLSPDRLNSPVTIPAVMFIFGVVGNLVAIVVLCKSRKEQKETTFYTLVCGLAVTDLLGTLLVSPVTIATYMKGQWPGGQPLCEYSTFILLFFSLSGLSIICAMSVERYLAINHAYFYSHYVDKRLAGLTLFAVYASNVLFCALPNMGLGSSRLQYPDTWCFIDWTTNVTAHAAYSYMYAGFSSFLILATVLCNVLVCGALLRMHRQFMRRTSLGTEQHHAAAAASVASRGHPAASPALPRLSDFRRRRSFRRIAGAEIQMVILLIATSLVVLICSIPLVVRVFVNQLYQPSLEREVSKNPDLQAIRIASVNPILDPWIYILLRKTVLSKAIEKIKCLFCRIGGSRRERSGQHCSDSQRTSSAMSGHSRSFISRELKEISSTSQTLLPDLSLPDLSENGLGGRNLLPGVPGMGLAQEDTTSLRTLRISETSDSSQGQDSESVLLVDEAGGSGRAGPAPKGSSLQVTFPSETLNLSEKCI

Row | SMILES | Ki [nM]
1 | CCOc1c2c(c(OCC)c3ccccc13)C(=O)N(c1ccc(CS(=O)(=O)NC(=O)Cc3cccc(C)c3)cc1)C2 [Example 26] | ≤ 100
2 | CCOc1c2c(c(OCC)c3ccccc13)C(=O)N(c1ccc(CS(=O)(=O)NC(=O)Cc3ccc4ccccc4c3)cc1)C2 [Example 48] | ≤ 100
3 | CCOc1c2c(c(OCC)c3ccccc13)C(=O)N(c1ccc(CS(=O)(=O)NC(=O)Cc3ccccc3CC(=O)OC)cc1)C2 [Example 47] | ≤ 100
4 | CCOc1c2c(c(OCC)c3ccccc13)C(=O)N(c1ccc(CS(=O)(=O)NC(=O)Cc3ccc(-c4ccccc4)cc3)cc1)C2 [Example 30] | ≤ 100
5 | CCOc1c2c(c(OCC)c3ccccc13)C(=O)N(c1ccc(CS(=O)(=O)NC(=O)Cc3ccccc3C)cc1)C2=O [Example 61] | ≤ 100
6 | CCOc1c2c(c(OCC)c3ccccc13)C(=O)N(c1ccc(CS(=O)(=O)NC(=O)Cc3cccc(F)c3)cc1)C2 [Example 25] | ≤ 100
7 | CCOc1c2c(c(OCC)c3ccccc13)C(=O)N(c1ccc(CS(=O)(=O)NC(=O)Cc3ccccc3F)cc1)C2 [Example 32] | ≤ 100
8 | CCOc1c2c(c(OCC)c3ccccc13)C(=O)N(c1ccc(CS(=O)(=O)NC(=O)Cc3ccc4ccccc4c3)cc1)C2=O [Example 77] | ≤ 100
9 | CCOc1c2c(c(OCC)c3ccccc13)C(=O)N(c1ccc(CS(=O)(=O)NC(=O)Cc3ccc(OC)c(OC)c3)cc1)C2 [Example 38, 1-[4-(4,9-diethoxy-1-oxo-1,3-dihydro-2H-benzo[f]isoindol-2-yl)phenyl]-N-[(3,4-dimethoxyphenyl)acetyl]methanesulfonamide] | ≤ 100
10 | CCOc1c2c(c(OCC)c3ccccc13)C(=O)N(c1ccc(CS(=O)(=O)NC(=O)Cc3cc(C)ccc3C)cc1)C2 [Example 39] | ≤ 100
11 | CCOc1c2c(c(OCC)c3ccccc13)C(=O)N(c1ccc(CS(=O)(=O)NC(=O)Cc3cccc(F)c3)cc1)C2=O [Example 65] | ≤ 100
12 | CCOc1c2c(c(OCC)c3ccccc13)C(=O)N(c1ccc(CS(=O)(=O)NC(=O)Cc3ccc4c(c3)OCO4)cc1)C2=O [Example 93] | ≤ 100
13 | CCOc1c2c(c(OCC)c3ccccc13)C(=O)N(c1ccc(CS(=O)(=O)NC(=O)C3(c4ccccc4)CC3)cc1)C2 [Example 50] | ≤ 100
14 | CCOc1c2c(c(OCC)c3ccccc13)C(=O)N(c1ccc(CS(=O)(=O)NC(=O)Cc3cc(F)ccc3F)cc1)C2=O [Example 69] | ≤ 100
15 | CCOc1c2c(c(OCC)c3ccccc13)C(=O)N(c1ccc(CS(=O)(=O)NC(=O)Cc3ccccc3Cl)cc1)C2 [Example 29] | ≤ 100
16 | CCOc1c2c(c(OCC)c3ccccc13)C(=O)N(c1ccc(CS(=O)(=O)NC(=O)C(C)c3ccc(CC(C)C)cc3)cc1)C2 (stereo not drawn) [Example 40] | ≤ 100
17 | CCOc1c2c(c(OCC)c3ccccc13)C(=O)N(c1ccc(CS(=O)(=O)NC(=O)Cc3ccc4c(c3)OCO4)cc1)C2 [Example 84] | ≤ 100
18 | CCOc1c2c(c(OCC)c3ccccc13)C(=O)N(c1ccc(CS(=O)(=O)NC(=O)Cc3cccc4occc34)cc1)C2 [Example 88] | ≤ 100
19 | CCOc1c2c(c(OCC)c3ccccc13)C(=O)N(c1ccc(CS(=O)(=O)NC(=O)Cc3ccc(C)cc3)cc1)C2 [Example 20] | ≤ 100
20 | CCOc1c2c(c(OCC)c3ccccc13)C(=O)N(c1ccc(CS(=O)(=O)NC(=O)Cc3ccc(CC)cc3)cc1)C2 [Example 28] | ≤ 100

Row | SMILES | Ki [nM]
21 | CCOc1c2c(c(OCC)c3ccccc13)C(=O)N(c1ccc(CS(=O)(=O)NC(=O)C(C)(C)c3cccc(C)c3)cc1)C2=O [Example 73] | ≤ 100
22 | CCOc1c2c(c(OCC)c3ccccc13)C(=O)N(c1ccc(CS(=O)(=O)NC(=O)C(C)(C)c3ccccc3)cc1)C2 [Example 22] | ≤ 100
23 | CCOc1c2c(c(OCC)c3ccccc13)C(=O)N(c1ccc(CS(=O)(=O)NC(=O)Cc3cccc(OC)c3)cc1)C2=O [Example 63] | ≤ 100
24 | CCOc1c2c(c(OCC)c3ccccc13)C(=O)N(c1ccc(CS(=O)(=O)NC(=O)Cc3ccc(OC(F)(F)F)cc3)cc1)C2 [Example 80] | ≤ 100
25 | CCOc1c2c(c(OCC)c3ccccc13)C(=O)N(c1ccc(CS(=O)(=O)NC(=O)Cc3ccccc3OC)cc1)C2 [Example 31, 1-[4-(4,9-diethoxy-1-oxo-1,3-dihydro-2H-benzo[f]isoindol-2-yl)phenyl]-N-[(2-methoxyphenyl)acetyl]methanesulfonamide] | ≤ 100
26 | CCOc1c2c(c(OCC)c3ccccc13)C(=O)N(c1ccc(CS(=O)(=O)NC(=O)Cc3ccc(CC(C)C)cc3)cc1)C2 [Example 23] | ≤ 100
27 | CCOc1c2c(c(OCC)c3ccccc13)C(=O)N(c1ccc(CS(=O)(=O)NC(=O)Cc3ccccc3)cc1)C2 [Example 18, 1-[4-(4,9-diethoxy-1-oxo-1,3-dihydro-2H-benzo[f]isoindol-2-yl)phenyl]-N-(phenylacetyl)methanesulfonamide] | ≤ 100
28 | CCOc1c2c(c(OCC)c3ccccc13)C(=O)N(c1ccc(CS(=O)(=O)NC(=O)Cc3ccc(Cl)cc3)cc1)C2=O [Example 70] | ≤ 100
29 | CCOc1c2c(c(OCC)c3ccccc13)C(=O)N(c1ccc(CS(=O)(=O)NC(=O)C(C)c3ccccc3)cc1)C2=O (stereo not drawn) [Example 68] | ≤ 100
30 | CCOc1c2c(c(OCC)c3ccccc13)C(=O)N(c1ccc(CS(=O)(=O)NC(=O)C(C)c3ccc4cc(OC)ccc4c3)cc1)C2 (stereo not drawn) [Example 86] | ≤ 100
31 | CCOc1c2c(c(OCC)c3ccccc13)C(=O)N(c1ccc(CS(=O)(=O)NC(=O)Cc3ccsc3)cc1)C2 [Example 51] | ≤ 100
32 | CCOc1c2c(c(OCC)c3ccccc13)C(=O)N(c1ccc(CS(=O)(=O)NC(=O)Cc3ccc4c(c3)OC(C)(C)O4)cc1)C2 [Example 85] | ≤ 100
33 | CCOc1c2c(c(OCC)c3ccccc13)C(=O)N(c1ccc(CS(=O)(=O)NC(=O)Cc3ccc(C)cc3)cc1)C2=O [Example 67, 1-[4-(4,9-diethoxy-1,3-dioxo-1,3-dihydro-2H-benzo[f]isoindol-2-yl)phenyl]-N-[(4-methylphenyl)acetyl]methanesulfonamide] | ≤ 100
34 | CCOc1c2c(c(OCC)c3ccccc13)C(=O)N(c1ccc(CS(=O)(=O)NC(=O)Cc3ccc(OC)c(OC)c3)cc1)C2=O [Example 66, 1-[4-(4,9-diethoxy-1,3-dioxo-1,3-dihydro-2H-benzo[f]isoindol-2-yl)phenyl]-N-[(3,4-dimethoxyphenyl)acetyl]methanesulfonamide] | ≤ 100
35 | CCOc1c2c(c(OCC)c3ccccc13)C(=O)N(c1ccc(CS(=O)(=O)NC(=O)Cc3scnc3C)cc1)C2 [Example 60] | ≤ 100
36 | CCOc1c2c(c(OCC)c3ccccc13)C(=O)N(c1ccc(CS(=O)(=O)NC(=O)Cc3ccccc3)cc1)C2=O [Example 1, 1-[4-(4,9-diethoxy-1,3-dioxo-1,3-dihydro-2H-benzo[f]isoindol-2-yl)phenyl]-N-(phenylacetyl)methanesulfonamide] | ≤ 100
37 | CCOc1c2c(c(OCC)c3ccccc13)C(=O)N(c1ccc(CS(=O)(=O)NC(=O)Cc3cccc(OC)c3)cc1)C2 [Example 43, 1-[4-(4,9-diethoxy-1-oxo-1,3-dihydro-2H-benzo[f]isoindol-2-yl)phenyl]-N-[(3-methoxyphenyl)acetyl]methanesulfonamide] | ≤ 100
38 | CCOc1c2c(c(OCC)c3ccccc13)C(=O)N(c1ccc(CS(=O)(=O)NC(=O)Cc3ccc(F)cc3)cc1)C2=O [Example 62] | ≤ 100
39 | CCOc1c2c(c(OCC)c3ccccc13)C(=O)N(c1ccc(CS(=O)(=O)NC(=O)Cc3ccc(OC)cc3)cc1)C2=O [Example 2] | ≤ 100
